{"source": "ChEMBL document CHEMBL4190261", "about": "“Triazole derivatives and their anti-tubercular activity” (Eur J Med Chem, 2017)", "key": {"[1]": {"system": "Mycobacterium tuberculosis", "experiment": "Potency index, ratio of ethambutol MIC to compound MIC for Mycobacterium tuberculosis H37Rv", "type": "functional"}, "[2]": {"system": "Mycobacterium tuberculosis", "experiment": "Antimycobacterial activity against Mycobacterium tuberculosis H37Rv", "type": "functional"}, "Pantothenate synthetase": {"target": "T1, Pantothenate synthetase (Mycobacterium tuberculosis, UniProt P9WIL5)", "T1 sequence (P9WIL5 whole entry)": "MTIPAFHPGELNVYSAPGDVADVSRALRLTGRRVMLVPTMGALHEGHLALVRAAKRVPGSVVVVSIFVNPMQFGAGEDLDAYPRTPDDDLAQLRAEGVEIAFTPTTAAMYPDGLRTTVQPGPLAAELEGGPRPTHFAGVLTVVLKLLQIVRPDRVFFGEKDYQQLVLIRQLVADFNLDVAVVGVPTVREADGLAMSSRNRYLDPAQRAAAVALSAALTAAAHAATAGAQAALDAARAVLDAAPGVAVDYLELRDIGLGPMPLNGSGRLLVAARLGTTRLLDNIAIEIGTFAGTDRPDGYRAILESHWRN", "experiment": "Inhibition of Mycobacterium tuberculosis pantothenate synthetase"}, "[3]": {"system": "Mycobacterium tuberculosis", "experiment": "Antimycobacterial activity against Mycobacterium tuberculosis H37Rv ATCC 27294 by agar dilution method", "type": "functional"}, "[4]": {"system": "Mycobacterium tuberculosis", "experiment": "Potency index, ratio of linezolid MIC to compound MIC for Mycobacterium tuberculosis H37Rv", "type": "functional"}, "[5]": {"system": "Mycobacterium tuberculosis", "experiment": "Potency index, ratio of ethambutol MIC to compound MIC for Mycobacterium tuberculosis H37Rv ATCC 27294", "type": "functional"}, "[6]": {"experiment": "Selectivity index, ratio of cytotoxic concentration for HEK293 cells to MIC for Mycobacterium tuberculosis H37Rv ATCC 27294", "type": "toxicity", "settings": "human, read-out: Selectivity Index"}, "[7]": {"system": "Mycobacterium tuberculosis", "experiment": "Antimycobacterial activity against Mycobacterium tuberculosis H37Rv ATCC 27294 after 5 days by MABA", "type": "functional", "settings": "H37Rv ATCC 27294, 120 h"}, "[8]": {"target": "T2, Phosphotyrosine protein phosphatase (Mycobacterium tuberculosis, UniProt A0A045ISB3)", "T2 sequence (A0A045ISB3 whole entry)": "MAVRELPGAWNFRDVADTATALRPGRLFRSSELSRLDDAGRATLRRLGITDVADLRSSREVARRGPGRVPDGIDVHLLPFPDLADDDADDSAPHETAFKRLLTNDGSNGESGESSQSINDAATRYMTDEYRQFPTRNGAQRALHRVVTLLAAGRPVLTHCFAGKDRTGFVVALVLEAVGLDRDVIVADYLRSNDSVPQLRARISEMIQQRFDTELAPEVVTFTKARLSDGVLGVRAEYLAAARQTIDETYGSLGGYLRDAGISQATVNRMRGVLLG", "experiment": "Inhibition of Mycobacterium tuberculosis PTPB"}, "[9]": {"system": "Mycobacterium tuberculosis", "experiment": "Antimycobacterial activity against Mycobacterium tuberculosis MC2 7000", "type": "functional"}, "[10]": {"system": "Mycobacterium tuberculosis", "experiment": "Antimycobacterial activity against Mycobacterium tuberculosis MC2 6230", "type": "functional"}, "[11]": {"settings": "Mycobacterium tuberculosis, H37Rv"}}, "data": [{"smiles": "CCCCCc1ccc(-c2cn(CC(O)COc3ccc4c(c3)OC3(CCCCC3)CC4=O)nn2)cc1", "note": "(stereo not given)", "values": [{"measurement": "Ratio", "setting": "[1]", "result": 2}, {"measurement": "MIC", "setting": "[2]; [11]", "result": 0.78, "unit": "µg/mL"}]}, {"smiles": "COc1ccc(-c2nnc(-c3cccnc3)n2Nc2nc3c(Cl)cccc3s2)cc1", "values": [{"measurement": "MIC99", "setting": "[2]; [11]", "result": 25, "unit": "µg/mL"}]}, {"smiles": "COc1ccc(-n2cc(Cn3nc(-c4ccccc4)c4c3CCN(C(=O)Nc3ccccc3)C4)nn2)cc1", "values": [{"measurement": "IC50", "setting": "Pantothenate synthetase", "result": 1.01, "unit": "µM"}, {"measurement": "MIC", "setting": "[3]", "result": 24.7, "unit": "µM"}]}, {"smiles": "O=C1CC2CN(c3ccc(N4C[C@H](Cn5ccnn5)OC4=O)cc3F)CC2C1", "note": "(stereo not given in full)", "values": [{"measurement": "Ratio", "setting": "[4]", "result": 2}, {"measurement": "MIC", "setting": "[2]; [11]", "result": 0.5, "unit": "µg/mL"}]}, {"smiles": "O=C(N/N=C1/C(=O)N(Cc2ccc(Cl)cc2)c2ccccc21)c1ccc(-n2cc(-c3ccccc3)nn2)cc1O", "values": [{"measurement": "Ratio", "setting": "[5]", "result": 8}, {"measurement": "selectivity ratio", "setting": "[6]", "result": "> 128"}, {"measurement": "MIC", "setting": "[7]", "result": 0.39, "unit": "µg/mL"}]}, {"smiles": "O=C(CCCCCCn1cc(COc2ccc(-c3cc(C(=O)O)no3)c(C3CCCCC3)c2)nn1)Nc1ccc2cc3ccccc3cc2c1", "values": [{"measurement": "IC50", "setting": "[8]", "result": 0.17, "unit": "µM"}]}, {"smiles": "c1cncc(-c2nn3c(COc4cnccn4)nnc3s2)c1", "values": [{"measurement": "MIC", "setting": "[2]; [11]", "result": 0.4, "unit": "µg/mL"}]}, {"smiles": "Clc1cccc(Cl)c1-c1nnc2sc(-c3cccnc3)nn12", "values": [{"measurement": "MIC", "setting": "[2]; [11]", "result": 25, "unit": "µg/mL"}]}, {"smiles": "CC1=C(C(=O)O)N2C(=O)[C@@H](NC(=O)[C@H](N)c3ccccc3)[C@H]2SC1", "note": "[CEPHALEXIN ANHYDROUS]", "values": [{"measurement": "MIC", "setting": "[9]", "result": "0.12 to 144", "unit": "µM"}, {"measurement": "MIC", "setting": "[10]", "result": "0.12 to 144", "unit": "µM"}]}, {"smiles": "CC[C@@H](CO)NCCN[C@@H](CC)CO", "note": "[ETHAMBUTOL]", "values": [{"measurement": "MIC", "setting": "[7]", "result": 3.13, "unit": "µg/mL"}, {"measurement": "MIC", "setting": "[2]; [11]", "result": 1.56, "unit": "µg/mL"}]}, {"smiles": "CCc1cc(C(N)=S)ccn1", "note": "[ETHIONAMIDE]", "values": [{"measurement": "MIC", "setting": "[9]", "result": "0.12 to 144", "unit": "µM"}, {"measurement": "MIC", "setting": "[10]", "result": "0.12 to 144", "unit": "µM"}]}, {"smiles": "NNC(=O)c1ccncc1", "note": "[ISONIAZID]", "values": [{"measurement": "MIC", "setting": "[9]", "result": "0.12 to 144", "unit": "µM"}, {"measurement": "MIC", "setting": "[10]", "result": "0.12 to 144", "unit": "µM"}, {"measurement": "MIC", "setting": "[7]", "result": 0.06, "unit": "µg/mL"}, {"measurement": "MIC", "setting": "[2]; [11]", "result": 0.075, "unit": "µg/mL"}]}, {"smiles": "CC(=O)NC[C@H]1CN(c2ccc(N3CCOCC3)c(F)c2)C(=O)O1", "note": "[LINEZOLID]", "values": [{"measurement": "MIC", "setting": "[2]; [11]", "result": 1, "unit": "µg/mL"}]}, {"smiles": "NC(=O)c1cnccn1", "note": "[PYRAZINAMIDE]", "values": [{"measurement": "MIC", "setting": "[2]; [11]", "result": 100, "unit": "µg/mL"}]}, {"smiles": "CO[C@H]1/C=C/O[C@@]2(C)Oc3c(C)c(O)c4c(O)c(c(/C=N/N5CCN(C)CC5)c(O)c4c3C2=O)NC(=O)/C(C)=C\\C=C\\[C@H](C)[C@H](O)[C@@H](C)[C@@H](O)[C@@H](C)[C@H](OC(C)=O)[C@@H]1C", "note": "[RIFAMPIN]", "values": [{"measurement": "MIC", "setting": "[9]", "result": "0.12 to 144", "unit": "µM"}, {"measurement": "MIC", "setting": "[10]", "result": "0.12 to 144", "unit": "µM"}, {"measurement": "MIC", "setting": "[7]", "result": 0.39, "unit": "µg/mL"}, {"measurement": "MIC98", "setting": "[2]", "result": 40, "unit": "µg/mL"}, {"measurement": "MIC", "setting": "[2]; [11]", "result": "0.043 to 0.5", "unit": "µg/mL"}]}]}
